Results as given in PMC3277506, “Extra-Renal Elimination of Uric Acid via Intestinal Efflux Transporter BCRP/ABCG2” (PLoS ONE, 2012).
Like-named read-outs stand apart in the source and are kept apart here. Blank lines part the entries; values can stand above or below the molecule they belong to.

What was measured:
Caco-2 cells = experiment: Bidirectional transcellular transport of [14C]uric acid in Caco-2 cells; format: in vitro ADME, human; conditions: elacridar 2 µM, Ko143 1 µM, verapamil 100 µM, MK571 10 µM
Method: Caco-2 cells were obtained from the American Type Culture Collection (Rockville, MD). Caco-2 cells were cultured in Dulbecco's modified Eagle's medium (D-MEM) (Invitrogen, Carlsbad, CA) supplemented with 10% (v/v) fetal bovine serum (Invitrogen), 100 units/mL benzylpenicillin, 100 µg/mL streptomycin, 1% (v/v) MEM non-essential amino acid solution (Invitrogen) at 37°C under an atmosphere of 5% CO2 in air. For bidirectional transport studies, Caco-2 cells were cultured on Transwell filter membrane inserts (BD Falcon, surface area 0.9 cm^2 and pore size 3 µm) at a density of 6.4×10^4 cells/cm^2 for 21 days before use for each experiment. […] Inhibitor was added to only apical side. Transport of [^14C]uric acid was measured in two directions, namely apical (AP)-to-basal (BL) and BL-to-AP directions. An aliquot of transport buffer was obtained from the donor side at 5 min for measurement of initial concentration, and from the receiver side at 30, 60, 90 and 120 min. Transport studies were performed at 37°C and pH 7.4.
The apparent permeability (Papp, cm/sec) of [^14C]uric acid across the cell monolayer was calculated using the following equation: [drawing 4] where Q is the amount of [^14C]uric acid transported over time t. Cd is the initial concentration in the donor side and A is the surface area of membrane.

rBcrp [1] = target: T1, rBcrp (Rattus norvegicus, UniProt Q80W57); experiment: [14C]uric acid uptake by rBcrp-expressing membrane vesicles; format: biochemical; design: purchased GenoMembrane Inc. (Yokohama, Japan); host or cells: Sf9 cells; conditions: [14C]uric acid uptake by vesicles, inhibitor concentrations only in Fig. 2C
T1 sequence (Q80W57 1-657): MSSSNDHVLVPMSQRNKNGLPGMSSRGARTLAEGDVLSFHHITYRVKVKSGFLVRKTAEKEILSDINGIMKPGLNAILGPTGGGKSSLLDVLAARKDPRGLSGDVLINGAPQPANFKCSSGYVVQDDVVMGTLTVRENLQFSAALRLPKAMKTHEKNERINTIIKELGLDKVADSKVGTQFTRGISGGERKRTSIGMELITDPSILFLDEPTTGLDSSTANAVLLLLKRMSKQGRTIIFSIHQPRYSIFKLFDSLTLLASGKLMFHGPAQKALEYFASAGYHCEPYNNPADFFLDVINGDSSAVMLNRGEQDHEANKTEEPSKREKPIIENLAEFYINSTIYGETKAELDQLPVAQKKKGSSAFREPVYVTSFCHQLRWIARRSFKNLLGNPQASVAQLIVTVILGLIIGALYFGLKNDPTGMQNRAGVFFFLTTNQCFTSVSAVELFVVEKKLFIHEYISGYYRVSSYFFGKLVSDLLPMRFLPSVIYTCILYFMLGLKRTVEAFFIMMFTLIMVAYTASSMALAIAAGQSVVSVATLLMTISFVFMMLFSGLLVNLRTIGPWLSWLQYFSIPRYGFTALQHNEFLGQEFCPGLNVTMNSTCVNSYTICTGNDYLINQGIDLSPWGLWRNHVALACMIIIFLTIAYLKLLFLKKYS
Method: hBCRP/rBcrp, hMRP2/rMrp2, or hMDR1-expressing membrane vesicles prepared from Sf9 cells were purchased from GenoMembrane Inc. (Yokohama, Japan). Uptake experiments were conducted as described previously. Briefly, after a pre-incubation for 5 min at 37°C, membrane vesicles (50 µg protein/50 µL final reaction volume) were incubated for 5 min at 37°C in the presence of 4 mM ATP or AMP in assay buffer (1 M KCl, 1 M MgCl2, and 100 mM MOPS-Tris, pH 7.0) containing [^14C]uric acid (1 µCi/mL). The uptake reaction was terminated by adding 1 mL ice-cold washing buffer (1 M KCl, and 100 mM MOPS-Tris, pH 7.0) to the membrane solution, and the mixture was rapidly filtered through a nitrocellulose filter (0.45 µm pore size, Millipore, Bedford, MA). The filters were washed twice with 5 mL ice-cold washing buffer. The filters were dried and dissolved in Clearsol-I for quantitation of radioactivity.

rBcrp [2] = target: T1, rBcrp; experiment: Effect of elacridar on intestinal secretion of uric acid, in situ intestinal closed loop method, oxonate-treated rats; format: in vivo; conditions: for Intestinal secretory clearance of uric acid, % of that in elacridar-untreated rats: 10 µM elacridar (Fig. 1A); for Intestinal secretory clearance of uric acid in the presence of elacridar: 10 µM elacridar, oxonate-treated rats
Method: We evaluated intestinal secretion of endogenous uric acid according to the method described previously, with some modifications. Rats were anesthetized with 50% urethane and treated with oxonate by the same method as in the in vivo animal study described above. Intestinal closed loops were made at different segments: jejunum (10 cm), ileum (10 cm), and colon (3–5 cm). Phosphate-buffered solution (PB, 0.075 M NaH2PO4 - 0.075 M Na2HPO4, pH 6.5) or inhibitor-containing PB was injected into the intestinal loop. After 60 min, the remaining luminal content in each loop was washed out and collected for quantitation. Blood was obtained from the jugular vein at 1, 20, 40 and 60 min. Plasma was obtained by centrifugation and used for quantitation.
The following equation was used to calculate intestinal secretory clearance (µL/min/cm loop) and estimated total intestinal secretory clearance (CLintestine, estimated) (mL/min): [drawing 1] [drawing 2] [drawing 3] where A is the amount of uric acid secreted into the intestinal lumen of each loop for 60 min, L is the length of the intestine, and AUC is area under the plasma concentration-time curve.

[3] = cited from earlier work
[4] = substrate: O=c1[nH]c(=O)c2[nH]c(=O)[nH]c2[nH]1; experiment: [14C]uric acid uptake by rBcrp-expressing membrane vesicles; format: biochemical, rat; conditions: other: ATP-dependent uptake, maximum uric acid concentration 5 mM; pH 7.0; 37.0 °C

Effect on polarized transport of uric acid across Caco-2 cell monolayer (Caco-2 cells): significantly reduced
Inhibition of rBcrp-mediated transport of uric acid (rBcrp [1]): strongly inhibited
Intestinal secretory clearance of uric acid, % of that in elacridar-untreated rats (rBcrp [2]; colon): 30%
Intestinal secretory clearance of uric acid in the presence of elacridar (rBcrp [2]; colon): 0.23±0.04 µL/min/cm loop
Ileal secretion of uric acid, % of the control (rBcrp [2]; ileum, 0.1 µM elacridar (Fig. 3A)): 53%
Intestinal secretory clearance of uric acid, % of that in elacridar-untreated rats (rBcrp [2]; ileum): 52%
Intestinal secretory clearance of uric acid in the presence of elacridar (rBcrp [2]; ileum): 0.82±0.12 µL/min/cm loop
Intestinal secretory clearance of uric acid, % of that in elacridar-untreated rats (rBcrp [2]; jejunum): 55%
Intestinal secretory clearance of uric acid in the presence of elacridar (rBcrp [2]; jejunum): 0.27±0.04 µL/min/cm loop
Molecule: COc1cc2c(cc1OC)CN(CCc1ccc(NC(=O)c3cccc4c(=O)c5cccc(OC)c5[nH]c34)cc1)CC2 [elacridar]

Molecule: CCCCc1nc(Cl)c(CO)n1Cc1ccc(-c2ccccc2-c2nn[nH]n2)cc1 [losartan]
Effect on SUA level ([3]; drugs in clinical use): decrease

Molecule: COc1ccc2c3c([nH]c2c1)[C@H](CC(C)C)N1C(=O)[C@H](CCC(=O)OC(C)(C)C)NC(=O)[C@@H]1C3 [Ko143, reference compound]
Effect on polarized transport of uric acid across Caco-2 cell monolayer (Caco-2 cells): significantly reduced
Inhibition of rBcrp-mediated transport of uric acid (rBcrp [1]): strongly inhibited

Inhibition of rBcrp-mediated transport of uric acid (rBcrp [1]): strongly inhibited
Molecule: C[C@]12CC[C@@H]3c4ccc(OS(=O)(=O)O)cc4CC[C@H]3[C@@H]1CCC2=O [estrone-3-sulfate]

Inhibition of rBcrp-mediated transport of uric acid (rBcrp [1]): not affected
Molecule: O=C(O)c1ccccc1O [salicylic acid]
Effect on SUA level ([3]; high dose): decrease
Effect on SUA level ([3]; low dose): increase

Effect on polarized transport of uric acid across Caco-2 cell monolayer (Caco-2 cells): significantly reduced
Molecule: CN(C)C(=O)CCSC(SCCC(=O)O)c1cccc(/C=C/c2ccc3ccc(Cl)cc3n2)c1 (centres unmarked) [MK571, reference compound]

Inhibition of rBcrp-mediated transport of uric acid (rBcrp [1]): moderately
Molecule: CO[C@H]1/C=C/O[C@@]2(C)Oc3c(C)c(O)c4c(O)c(c(/C=N/N5CCN(C)CC5)c(O)c4c3C2=O)NC(=O)/C(C)=C\C=C\[C@H](C)[C@H](O)[C@@H](C)[C@@H](O)[C@@H](C)[C@H](OC(C)=O)[C@@H]1C [rifampicin]

Inhibition of rBcrp-mediated transport of uric acid (rBcrp [1]): not affected
Molecule: CC(C(=O)O)c1cccc(C(=O)c2ccccc2)c1 (centres unmarked) [ketoprofen]

B1: rBcrp (Rattus norvegicus) (protein)
chain: MSSSNDHVLVPMSQRNKNGLPGMSSRGARTLAEGDVLSFHHITYRVKVKSGFLVRKTAEKEILSDINGIMKPGLNAILGPTGGGKSSLLDVLAARKDPRGLSGDVLINGAPQPANFKCSSGYVVQDDVVMGTLTVRENLQFSAALRLPKAMKTHEKNERINTIIKELGLDKVADSKVGTQFTRGISGGERKRTSIGMELITDPSILFLDEPTTGLDSSTANAVLLLLKRMSKQGRTIIFSIHQPRYSIFKLFDSLTLLASGKLMFHGPAQKALEYFASAGYHCEPYNNPADFFLDVINGDSSAVMLNRGEQDHEANKTEEPSKREKPIIENLAEFYINSTIYGETKAELDQLPVAQKKKGSSAFREPVYVTSFCHQLRWIARRSFKNLLGNPQASVAQLIVTVILGLIIGALYFGLKNDPTGMQNRAGVFFFLTTNQCFTSVSAVELFVVEKKLFIHEYISGYYRVSSYFFGKLVSDLLPMRFLPSVIYTCILYFMLGLKRTVEAFFIMMFTLIMVAYTASSMALAIAAGQSVVSVATLLMTISFVFMMLFSGLLVNLRTIGPWLSWLQYFSIPRYGFTALQHNEFLGQEFCPGLNVTMNSTCVNSYTICTGNDYLINQGIDLSPWGLWRNHVALACMIIIFLTIAYLKLLFLKKYS
notes: purchased GenoMembrane Inc. (Yokohama, Japan); host or cells: Sf9 cells
Km [4]: 12.5 ± 0.77 mM
